According to US11396517B1, “Exo-aza spiro inhibitors of menin-MLL interaction” (Janssen Pharmaceutica NV, priority 2017, dated 2022):
Like-named read-outs stand apart in the source and are kept apart here.

Tests used:
MOLM14 = test: Proliferation assay B (spheroid assay) MOLM14; format: cell-based, human; conditions: MOLM14 cells, confluence at day 8, absolute IC50, read-out: (3b) Spheroid assay MOLM14 (IC50(μM)) Assay B
Method: 3b) Proliferation Assay B
The anti-proliferative effect of menin/MLL protein/protein interaction inhibitor test compounds was assessed in human leukemia cell lines. The cell lines MV-4-11 and MOLM14 harbor MILL translocations and express the MILL fusion proteins MLL-AF4 and MLL-AF9, respectively, as well as the wildtype protein from the second allele. […] K562 was used as a control cell line containing two MLL wildtype alleles in order to exclude compounds that display general cytotoxic effects.
MV-4-11 and MOLM14 were cultured in RPMI-1640 (Sigma Aldrich) supplemented with 10% fetal bovine serum (HyClone), 2 mM L-glutamine (Sigma Aldrich) and 50 μg/ml gentamycin (Gibco). K562 were propagated in RPMI-1640 (Sigma Aldrich) supplemented with 20% fetal bovine serum (HyClone), 2 mM L-glutamine (Sigma Aldrich) and 50 μg/ml gentamycin (Gibco).
In order to assess the anti-proliferative effects, 1,500 MV-4-11, 300 MOLM14 cells or 750 K562 cells were seeded in 200 μl media per well in 96-well round bottom, ultra-low attachment plates (Costar, catalogue number 7007). Cell seeding numbers were chosen based on growth curves to ensure linear growth throughout the experiment. Test compounds were added at different concentrations and the DMSO content was normalized to 0.3%. Cells were incubated for 8 d at 37° C. and 5% CO2. Spheroid like growth was measured in real-time by live-cell imaging (IncuCyteZOOM, Essenbio, 4× objective) acquiring images at day 8. Confluence (%) as a measure of spheroid size was determined using an integrated analysis tool.
In order to determine the effect of the test compounds over time, the confluence in each well as a measure of spheroid size, was calculated. Confluence […] at the beginning of the experiment (t=0) was used as baseline for the calculation.
Absolute IC50 values were calculated as percent change in confluence as follows:
LC=Low Control: cells treated with 1 μM of the cytotoxic agent staurosporin
HC=High Control: Mean confluence (%) (DMSO treated cells) % Effect=100−(100*(Sample−LC)/(HC−LC))
To determine the IC50 a curve is fitted to the plot of % Effect vs Log 10 compound concentration using a sigmoidal fit with a variable slope and fixing the maximum to 100% and the minimum to 0%.

menin = biological target: T1, menin (Homo sapiens, UniProt O00255, T541A); test: Menin/MLL homogenous time-resolved fluorescence (HTRF) assay; format: binding
T1 construct: Menin (a.a. 1-610-6×his tag)
T1 sequence (O00255 with tags, fused parts or gaps T541A): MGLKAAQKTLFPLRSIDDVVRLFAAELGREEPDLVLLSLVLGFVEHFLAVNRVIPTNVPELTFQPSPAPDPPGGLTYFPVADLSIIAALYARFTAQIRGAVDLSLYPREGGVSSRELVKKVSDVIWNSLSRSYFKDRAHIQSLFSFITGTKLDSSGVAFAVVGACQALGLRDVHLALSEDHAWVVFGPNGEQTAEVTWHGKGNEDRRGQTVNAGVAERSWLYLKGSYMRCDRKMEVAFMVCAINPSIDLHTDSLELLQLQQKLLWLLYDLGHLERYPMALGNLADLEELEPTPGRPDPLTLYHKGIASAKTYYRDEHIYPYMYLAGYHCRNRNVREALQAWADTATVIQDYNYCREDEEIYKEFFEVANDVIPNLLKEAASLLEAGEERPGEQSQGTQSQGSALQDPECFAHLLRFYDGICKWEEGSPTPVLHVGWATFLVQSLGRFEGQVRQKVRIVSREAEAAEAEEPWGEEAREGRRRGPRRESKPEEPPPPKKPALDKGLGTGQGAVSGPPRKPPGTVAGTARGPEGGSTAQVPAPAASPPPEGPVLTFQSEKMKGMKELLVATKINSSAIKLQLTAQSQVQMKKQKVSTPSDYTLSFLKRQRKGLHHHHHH
Summary of the method: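 Displacement of 75 nM FITC-MBM1 from terbium-cryptate-labeled His-tagged menin 1-610 ([…]) was read as the 520/490 nm HTRF ratio. Compound (11-point, 3-fold series) got 5 min with menin before peptide, then 15 min at ambient; 0.5% DMSO, Tris pH 7.5.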

[1] = location 2, read-out: (2) location 2 Menin HTRF assay (IC50 (nM))

Row | Compound | IC50 (MOLM14; Homo sapiens, MOLM-14, 192 h) | IC50 (menin; [1]) | IC50 (MOLM14) | IC50 (menin; location 1, read-out: (2) location 1 Menin HTRF assay (IC50 (nM)))
1 | CS(=O)(=O)NCc1ccc(NC2CC3(CCN(c4ncnc5sc(CC(F)(F)F)cc45)C3)C2)cc1 (single isomer, unassigned) [Compound 367] | > 3.75 µM | 63.6 nM | – | –
2 | CS(=O)(=O)NCc1ccc(NC2CC3(CCN(c4ncnc5sc(CC(F)(F)F)cc45)C3)C2)cc1 (single isomer, unassigned) [Compound 368] | – | 2.9 nM | 2.61 µM | –
3 | N#CCc1ccc(NC2CC3(CCN(c4nc(N)nc5sc(CC(F)(F)F)cc45)C3)C2)cc1 (single isomer, unassigned) [Compound 379] | > 3.75 µM | 1.4 nM | – | –
4 | Nc1nc(N2CCC3(CC(Nc4ccc5[nH]c(=O)[nH]c5c4)C3)C2)c2cc(CC(F)(F)F)sc2n1 (single isomer, unassigned) [Compound 382] | > 3.75 µM | 27.9 nM | – | –
5 | CNc1nc(N2CCC3(CC(Nc4ccc5[nH]c(=O)[nH]c5c4)C3)C2)c2cc(CC(F)(F)F)sc2n1 (single isomer, unassigned) [Compound 394] | > 3.75 µM | 13.8 nM | – | –
6 | CNc1nc(N2CCC3(CC(Nc4ccc5oc(=O)[nH]c5c4)C3)C2)c2cc(CC(F)(F)F)sc2n1 (single isomer, unassigned) [Compound 397] | > 3.75 µM | 4.4 nM | – | –
7 | CNc1nc(N2CCC3(CC(Nc4ccc5oc(=O)[nH]c5c4)C3)C2)c2cc(CC(F)(F)F)sc2n1 (single isomer, unassigned) [Compound 398] | – | 16.2 nM | > 3.75 µM | –
8 | CC1CN(C(=O)c2ccc(NC3CC4(CCN(c5ncnc6sc(CC(F)(F)F)cc56)C4)C3)cc2)CC(C)O1 (single isomer, unassigned) [Compound 405] | > 3.75 µM | 1100 nM | – | –
9 | CC1CN(C(=O)c2ccc(NC3CC4(CCN(c5ncnc6sc(CC(F)(F)F)cc56)C4)C3)cc2)CC(C)O1 (single isomer, unassigned) [Compound 406] | – | 36 nM | > 3.75 µM | –
10 | COC[C@H]1COCCN1C(=O)c1ccc(NC2CC3(CCN(c4ncnc5sc(CC(F)(F)F)cc45)C3)C2)cc1 (single isomer, unassigned) [Compound 407] | > 3.75 µM | 1020 nM | – | –
11 | COC[C@H]1COCCN1C(=O)c1ccc(NC2CC3(CCN(c4ncnc5sc(CC(F)(F)F)cc45)C3)C2)cc1 (single isomer, unassigned) [Compound 408] | – | 16.4 nM | > 3.75 µM | –
12 | O=C(c1ccc(NC2CC3(CCN(c4ncnc5sc(CC(F)(F)F)cc45)C3)C2)cc1)N1CCS(=O)(=O)CC1 (single isomer, unassigned) [Compound 411] | > 3.75 µM | 101 nM | – | –
13 | O=C(c1ccc(NC2CC3(CCN(c4ncnc5sc(CC(F)(F)F)cc45)C3)C2)cc1)N1CCS(=O)(=O)CC1 (single isomer, unassigned) [Compound 412] | – | 7510 nM | > 3.75 µM | –
14 | CNC(=O)c1cnc(NC2CC3(CCN(c4ncnc5sc(CC(F)(F)F)cc45)C3)C2)cn1 (single isomer, unassigned) [Compound 418] | > 3.75 µM | 749 nM | – | –
15 | CNC(=O)c1cnc(NC2CC3(CCN(c4ncnc5sc(CC(F)(F)F)cc45)C3)C2)cn1 (single isomer, unassigned) [Compound 419] | – | 10.8 nM | 3.04 µM | –
16 | O=C(c1ccc(NC2CC3(CCN(c4ncnc5sc(CC(F)(F)F)cc45)C3)C2)nn1)N1CCOCC1 (single isomer, unassigned) [Compound 420] | > 3.75 µM | 3380 nM | – | –
17 | O=C(c1ccc(NC2CC3(CCN(c4ncnc5sc(CC(F)(F)F)cc45)C3)C2)nn1)N1CCOCC1 (single isomer, unassigned) [Compound 421] | – | 208 nM | > 3.75 µM | –
18 | CNC(=O)c1ccc(N[C@@H]2CC[C@@]3(CCN(c4ncnc5sc(CC(F)(F)F)cc45)C3)C2)cc1 (stereo in doubt) [Compound 134] | 1.29 µM | 1.6 nM | – | –

Row | Compound | IC50 (MOLM14; Homo sapiens, MOLM-14, 192 h) | IC50 (menin; [1]) | IC50 (MOLM14) | IC50 (menin; location 1, read-out: (2) location 1 Menin HTRF assay (IC50 (nM)))
19 | CNC(=O)c1ccc(N[C@H]2CC[C@@]3(CCN(c4ncnc5sc(CC(F)(F)F)cc45)C3)C2)cc1 (stereo in doubt) [Compound 135] | > 3.75 µM | 23.9 nM | – | –
20 | CNC(=O)c1ccc(N[C@@H]2CC[C@]3(CCN(c4ncnc5sc(CC(F)(F)F)cc45)C3)C2)cc1 (stereo in doubt) [Compound 136] | > 3.75 µM | 409 nM | – | –
21 | CNC(=O)c1ccc(N[C@H]2CC[C@]3(CCN(c4ncnc5sc(CC(F)(F)F)cc45)C3)C2)cc1 (stereo in doubt) [Compound 137] | > 3.75 µM | 5.7 nM | – | –
22 | FC(F)(F)Cc1cc2c(N3CC[C@@]4(CC[C@@H](Nc5ccc(-c6cc[nH]n6)cc5)C4)C3)ncnc2s1 (stereo in doubt) [Compound 139] | 0.56 µM | 3.5 nM | – | –
23 | FC(F)(F)Cc1cc2c(N3CC[C@@]4(CC[C@H](Nc5ccc(-c6cc[nH]n6)cc5)C4)C3)ncnc2s1 (stereo in doubt) [Compound 140] | 1.82 µM | 30.9 nM | – | –
24 | FC(F)(F)Cc1cc2c(N3CC[C@]4(CC[C@@H](Nc5ccc(-c6cc[nH]n6)cc5)C4)C3)ncnc2s1 (stereo in doubt) [Compound 141] | 2.3 µM | 3.9 nM | – | –
25 | FC(F)(F)Cc1cc2c(N3CC[C@]4(CC[C@H](Nc5ccc(-c6cc[nH]n6)cc5)C4)C3)ncnc2s1 (stereo in doubt) [Compound 142] | 0.6 µM | 45.7 nM | – | –
26 | CNC(=O)c1ccc(NC2CC3(CCN(c4ncnc5sc(CC(F)(F)F)cc45)C3)C2)c(F)c1 (stereo not shown) [Compound 66] | > 3.75 µM | 26.8 nM | – | –
27 | CNC(=O)c1ccc(NC2CC3(CCN(c4ncnc5sc(CC(F)(F)F)cc45)C3)C2)cc1OCCN(C)C (stereo not shown) [Compound 76] | > 3.75 µM | 354 nM | – | –
28 | O=C(NCCO)c1ccc(NC2CC3(CCN(c4ncnc5sc(CC(F)(F)F)cc45)C3)C2)cc1 (stereo not shown) [Compound 83] | > 3.75 µM | 58.7 nM | – | –
29 | COCCNC(=O)c1ccc(NC2CC3(CCN(c4ncnc5sc(CC(F)(F)F)cc45)C3)C2)cc1 (stereo not shown) [Compound 85] | 1.13 µM | 0.7 nM | – | –
30 | O=C(NCCN1CCOCC1)c1ccc(NC2CC3(CCN(c4ncnc5sc(CC(F)(F)F)cc45)C3)C2)cc1 (stereo not shown) [Compound 87] | > 3.75 µM | 191 nM | – | –
31 | CS(=O)(=O)N[C@H]1CC[C@H](NC2CC3(CCN(c4ncnc5sc(CC(F)(F)F)cc45)C3)C2)CC1 (stereo partly shown) [Compound 102] | > 3.75 µM | 362 nM | – | 342 nM
32 | CCS(=O)(=O)N[C@H]1CC[C@H](CNC2CC3(CCN(c4ncnc5sc(CC(F)(F)F)cc45)C3)C2)CC1 (stereo partly shown) [Compound 106] | 3.39 µM | 17.8 nM | – | –
33 | O=C1NCCN1Cc1ccc(NC2CC3(CCN(c4ncnc5sc(CC(F)(F)F)cc45)C3)C2)cc1 (stereo not shown) [Compound 107] | > 3.75 µM | 22.1 nM | – | –
34 | CNC(=O)c1ccc(NC2CC3(CCN(c4ncnc5sc(CC(F)(F)F)cc45)C3)C2)cc1F (stereo not shown) [Compound 203] | 2.39 µM | 2.8 nM | – | –
35 | CNC(=O)c1ccc(NC2CC3(CCN(c4ncnc5sc(CC(F)(F)F)cc45)C3)C2)c(C)c1 (stereo not shown) [Compound 212] | – | 58.1 nM | > 3.75 µM | –
36 | CNC(=O)c1ccc(NC2CC3(CCN(c4ncnc5sc(CC(F)(F)F)cc45)C3)C2)cc1C (stereo not shown) [Compound 237] | – | 489 nM | > 3.75 µM | –
